# Experimental data published in US20210122780A1, “COMPOSITIONS FOR THE PREVENTION AND TREATMENT OF PARKINSON'S DISEASE” (Metselex, Inc., priority 2018, published 2021).
# What was measured:
# [1] = tested on: Alkaline phosphatase from bovine intestinal mucosa; assay: Alkaline phosphatase activation of prodrugs (31P NMR); format: biochemical; details: in vitro, FIG. 5
# Method: Alkaline phosphatase activation of prodrugs 3 and 19d. Alkaline phosphatase from bovine intestinal mucosa (Sigma-Aldrich, P5521-2KU) was dissolved in 2.0 mL of a 0.100 M sodium glycine buffer containing 1.0 mM ZnCl2 and 1.0 mM MgCl2. This stock solution was stored at 4° C. between uses.
# Compound 19d (10.0 mg, 0.016 mmol) or compound 3 (8.7 mg, 0.016 mmol) were dissolved in 0.6 mL of a 0.100 M tris glycine buffer solution containing 1.0 mM ZnCl2 and 1.0 mM MgCl2. […] 50 μL of the previously prepared AP stock solution was further diluted by addition to 0.950 mL of a 0.100 M tris glycine buffer containing 1.0 mM ZnCl2 and 1.0 mM MgCl2. 10.0 μL of this diluted AP solution was added to the prodrug solution by syringe. A series of 42 inverse-gated decoupled ^31P NMR's were taken (24 scans each, approximately one minute acquisition time). Conversion (%) was determined from the relative integration of the starting material and product peaks, NMR time stamps were used to determine time. Each experiment was repeated three times.
# Primary rat hepatocytes = assay: Cell viability and apoptosis assays, TGF-β1-exposed hepatocytes; format: cell-based; details: 100 μM, with or without 3 U/ml alkaline phosphatase, TGF-β1 24 h
# Method: Cell culture and treatments. Primary rat hepatocytes were isolated from male rats (100-150 g) by collagenase perfusion. Briefly, rats were anesthetized with phenobarbital sodium (100 mg/kg body weight) injected into the peritoneal cavity. After administration of heparin (200 units/kg body weight) in the tail vein, the animals' abdomen was opened and the portal vein exposed and cannulated. The liver was then perfused at 37° C. in situ with a calcium-free Hanks' Balanced Salt Solution (HBSS) for ˜10 min, and then with 0.05% collagenase type IV in calcium-present HBSS for another 10 min. […] Cell viability was determined by trypan blue exclusion and was typically 80-85%. […]
# Cell viability assays. […] Finally, absorbance was measured at 490 nm, with 690 nm as reference, using a Bio-Rad model 680-microplate reader (Bio-Rad Laboratories, Hercules, Calif., USA).
# To assess cellular viability, the CellTiter-Fluor™ viability assay was used (Promega Corp., Madison, Wis., USA). Briefly, viable cells are measured using a fluorogenic, cell-permeant, peptide substrate (Gly-Phe-AFC), which is cleaved by the live-cell protease activity to generate a fluorescent signal proportional to the number of living cells. Cells were incubated with an equal volume of CellTiter-Fluor™ Reagent for 30 min at 37° C. and resulting fluorescence (380-400 nmEx/505 nmEm) measured using a GloMax+ Multi Detection System (Promega Corp.). […]
smiles,measurement,setting,value
"CC(CCC(=O)OCOP(=O)(O)O)C1CCC2C3C(O)CC4CC(O)CCC4(C)C3CCC12C (centres unmarked) [Compound 19, ursodeoxycholic acid phosphonooxymethoxy ester]",rate of alkaline phosphatase catalyzed release of UDCA,[1],faster than prodrug 3
same,anti-apoptotic potency in in vitro assays,Primary rat hepatocytes,"highly active in these assays, but required activation by exogenous alkaline phosphatase"
